# Measurements taken from ChEMBL document CHEMBL1275256, “Contribution of a plasmid-borne blaOXA-58 gene with its hybrid promoter provided by IS1006 and an ISAba3-like element to beta-lactam resistance in acinetobacter genomic species 13TU” (2010).
# Calls of active or inactive are those of the source. The calls are words filed in the database; no cut-off is given here.
# Key:
# Assay type in all cases: functional
# [1] = Antimicrobial activity against Acinetobacter genomic species 13TU ATCC 17903 by agar dilution method; details: Acinetobacter nosocomialis
# [2] = Antimicrobial activity against Acinetobacter genomic species 13TU ATCC 17903 harboring pYMAb3 plasmid by agar dilution method; details: Acinetobacter nosocomialis
# [3] = Antimicrobial activity against Acinetobacter genomic species 13TU ATCC 17903 harboring pOXA-58-7 plasmid by agar dilution method; details: Acinetobacter nosocomialis
# [4] = Antimicrobial activity against Acinetobacter genomic species 13TU ATCC 17903 harboring pOXA-58-6 plasmid by agar dilution method; details: Acinetobacter nosocomialis
# [5] = Antimicrobial activity against Acinetobacter genomic species 13TU by agar dilution method; details: Acinetobacter nosocomialis
# [6] = Antimicrobial activity against Acinetobacter genomic species 13TU ATCC 17903 harboring pOXA-58-5 plasmid by agar dilution method; details: Acinetobacter nosocomialis
# [7] = system: Acinetobacter nosocomialis; test: Antimicrobial activity against Acinetobacter genomic species 13TU ATCC 17903 harboring pOXA-58-5 plasmid by Etest method
# [8] = system: Acinetobacter nosocomialis; test: Antimicrobial activity against Acinetobacter genomic species 13TU ATCC 17903 harboring pOXA-58-6 plasmid by Etest method
# [9] = Antimicrobial activity against Acinetobacter genomic species 13TU by Vitek II system in presence of Tazobactam; details: Acinetobacter nosocomialis
# [10] = Antimicrobial activity against Acinetobacter genomic species 13TU ATCC 17903 harboring pOXA-58-5 plasmid by Vitek II system in presence of Tazobactam; details: Acinetobacter nosocomialis
# [11] = Antimicrobial activity against Acinetobacter genomic species 13TU ATCC 17903 by Vitek II system in presence of Tazobactam; details: Acinetobacter nosocomialis
# [12] = Antimicrobial activity against Acinetobacter genomic species 13TU ATCC 17903 by Vitek II system; details: Acinetobacter nosocomialis
# [13] = Antimicrobial activity against Acinetobacter genomic species 13TU ATCC 17903 harboring pOXA-58-7 plasmid by Vitek II system; details: Acinetobacter nosocomialis
# [14] = Antimicrobial activity against Acinetobacter genomic species 13TU by Vitek II system; details: Acinetobacter nosocomialis
# [15] = Antimicrobial activity against Acinetobacter genomic species 13TU ATCC 17903 harboring pYMAb3 plasmid by Vitek II system; details: Acinetobacter nosocomialis
# [16] = Antimicrobial activity against Acinetobacter genomic species 13TU ATCC 17903 harboring pOXA-58-5 plasmid by Vitek II system; details: Acinetobacter nosocomialis
# [17] = Antimicrobial activity against Acinetobacter genomic species 13TU ATCC 17903 harboring pOXA-58-6 plasmid by Vitek II system; details: Acinetobacter nosocomialis
structure (smiles),measurement,setting,value
CC1(C)S[C@@H]2[C@H](NC(=O)[C@H](N)c3ccc(O)cc3)C(=O)N2[C@H]1C(=O)O [AMOXICILLIN],MIC,[1],64 µg/mL
same,MIC,[2],64 µg/mL
same,MIC,[3],256 µg/mL
same,MIC,[4],> 1020 µg/mL
same,MIC,[5],> 1020 µg/mL
same,MIC,[6],> 1020 µg/mL
C[C@@H](O)[C@H]1C(=O)N2C(C(=O)O)=C(SCCNC=N)C[C@H]12 [IMIPENEM ANHYDROUS],Activity,[7],inactive
same,MIC,[1],0.25 µg/mL
same,MIC,[2],0.25 µg/mL
same,MIC,[3],0.5 µg/mL
same,MIC,[4],16 µg/mL
same,MIC,[5],16 µg/mL
same,MIC,[6],32 µg/mL
C[C@@H](O)[C@H]1C(=O)N2C(C(=O)O)=C(S[C@@H]3CN[C@H](C(=O)N(C)C)C3)[C@H](C)[C@H]12 [MEROPENEM],MIC,[1],0.5 µg/mL
same,MIC,[2],0.5 µg/mL
same,Activity,[8],inactive
same,MIC,[3],0.5 µg/mL
same,MIC,[4],8 µg/mL
same,MIC,[5],8 µg/mL
same,MIC,[6],16 µg/mL
CCN1CCN(C(=O)N[C@@H](C(=O)N[C@@H]2C(=O)N3[C@@H]2SC(C)(C)[C@@H]3C(=O)O)c2ccccc2)C(=O)C1=O [PIPERACILLIN],MIC,[9],≥ 128 µg/mL
same,MIC,[1],16 µg/mL
same,MIC,[2],16 µg/mL
same,MIC,[10],≥ 128 µg/mL
same,MIC,[3],32 µg/mL
same,MIC,[4],512 µg/mL
same,MIC,[11],≤ 4 µg/mL
same,MIC,[5],> 1020 µg/mL
same,MIC,[6],> 1020 µg/mL
CO/N=C(\C(=O)N[C@@H]1C(=O)N2C(C(=O)O)=C(COC(N)=O)CS[C@H]12)c1ccco1 [CEFUROXIME],MIC,[12],16 µg/mL
same,MIC,[13],16 µg/mL
same,MIC,[14],≥ 64 µg/mL
same,MIC,[15],16 µg/mL
same,MIC,[16],≥ 64 µg/mL
same,MIC,[17],16 µg/mL
CC(C)(O/N=C(\C(=O)N[C@@H]1C(=O)N2C(C(=O)[O-])=C(C[n+]3ccccc3)CS[C@H]12)c1csc(N)n1)C(=O)O [CEFTAZIDIME],MIC,[1],4 µg/mL
same,MIC,[2],4 µg/mL
same,MIC,[3],4 µg/mL
same,MIC,[4],4 µg/mL
same,MIC,[5],16 µg/mL
same,MIC,[6],4 µg/mL
CC1(C)S[C@@H]2[C@H](NC(=O)[C@H](C(=O)O)c3ccsc3)C(=O)N2[C@H]1C(=O)O [TICARCILLIN],MIC,[1],16 µg/mL
same,MIC,[2],16 µg/mL
same,MIC,[3],256 µg/mL
same,MIC,[4],> 1020 µg/mL
same,MIC,[5],> 1020 µg/mL
same,MIC,[6],> 1020 µg/mL
CO/N=C(\C(=O)N[C@@H]1C(=O)N2C(C(=O)[O-])=C(C[N+]3(C)CCCC3)CS[C@H]12)c1csc(N)n1 [CEFEPIME],MIC,[1],2 µg/mL
same,MIC,[2],2 µg/mL
same,MIC,[4],2 µg/mL
same,MIC,[5],128 µg/mL
same,MIC,[6],4 µg/mL
